Results taken from patent US11447504B2, “Macrocyclic chlorine substituted indole derivatives” (Bayer Aktiengesellschaft, priority 2017, dated 2022).
Counter-ions that a name gives are not always drawn. Like-named read-outs stand apart in the source and are kept apart here.

Assays:
SUDHL5 [1] = test: Induction of caspase-3/7 activity (Assay 4), SUDHL5; format: cell-based; details: SUDHL5 cells
Method in brief: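 DLBCL cells treated with compounds for 3 hours at 37° C. Caspase-3/7 activity measured by Caspase-Glo 3/7 luminescence, with medium-only background subtracted.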

SUDHL10 [2] = test: Induction of caspase-3/7 activity (Assay 4), SUDHL10; format: cell-based; details: SUDHL10 cells
Method in brief: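 Luminescent Caspase-Glo 3/7 read-out after a 3 h, 37 °C compound exposure of the DLBCL line SUDHL10. Values are background-corrected using medium-only wells.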

SUDHL5 [3] = test: Antiproliferation assay 7, SUDHL5; format: cell-based; details: SUDHL5 cells, CellTiter-Glo, read-out: Antiproli SUDHL5 IC50 (median)
Method in brief: (§1)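 Plate cells in treatment and day 0 reference plates; read day 0 plate with CellTiter-Glo after 10 min; incubate treated plates 72 h at 37° C; read them identically.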

SUDHL10 [4] = test: Antiproliferation assay 7, SUDHL10; format: cell-based; details: SUDHL10 cells, CellTiter-Glo, read-out: Antiproli SUDHL10 IC50 (median)
Method in brief: as §1

MV-4-11 = test: Antiproliferation assay 7, MV-4-11; format: cell-based; details: MV-4-11 cells, CellTiter-Glo, read-out: Antiproli MV-4-11 IC50 median
Method in brief: as §1

AMO-1 = test: Antiproliferation assay 7, AMO-1; format: cell-based; details: AMO-1 cells, CellTiter-Glo, read-out: Antiproli AMO-1 IC50 median
Method in brief: as §1

HMC-1-8 = test: Antiproliferation assay 7, HMC-1-8; format: cell-based; details: HMC-1-8 cells, CellTiter-Glo, read-out: Antiproli HMC-1-8 IC50 median
Method in brief: as §1

SK-BR-3 = test: Antiproliferation assay 7, SK-BR-3; format: cell-based; details: SK-BR-3 cells, 72 hours, CellTiter-Glo, read-out: Antiproli SK-BR-3 IC50 median
Method in brief: as §1

A2058 = test: Antiproliferation assay 7, A2058; format: cell-based; details: A2058 cells, 72 hours, CellTiter-Glo, read-out: Antiproli A2058 IC50 median
Procedure: (§2) Assessment of the Anti-Proliferative Effect of Compounds in Different Cell Lines
(§3) The impact of compounds on the proliferation of different cell lines was assessed using the CellTiter-Glo® Luminescent Cell Viability reagent from Promega (G7573).
(§4) In parallel, cells were plated in a reference (day 0) plate for time zero determination.
(§5) Rim wells were excluded. The cells were incubated for 72 hours in a humidified incubator at 37° C. The day 0 plate was measured by adding 30 μL/well of CTG solution (CellTiter-Glo® Luminescent Cell Viability reagent, Promega G7573) to time zero wells in the reference plate followed by a 10 minutes incubation and luminescence reading at 0.1 ms. using the PHERAstar FS microplate reader (BMG Labtech).
(§6) After 72 hours incubation, the treated plates were measured in the same way as the day 0 plate mentioned above.

NCI-H23 = test: Antiproliferation assay 7, NCI-H23; format: cell-based; details: NCI-H23 cells, 72 hours, CellTiter-Glo, read-out: Antiproli NCI-H23 IC50 median
Procedure: as §2, §3, §4, §5, §6

SUDHL10 [5] = test: Induction of cytotoxicity (Assay 6), SUDHL10
[6] = from CCOC(=O)c1[nH]c2c(-c3c(N(C)CCCCCO)nn(C)c3C)c(Cl)ccc2c1CCCOc1cccc2cc(F)ccc12, amine bond, di-tert-butyl azodicarboxylate/PPh3, THF, 15.7 mM, 64.0 h
SNU-389 = test: Antiproliferation assay 7, SNU-389; format: cell-based; details: SNU-389 cells, 72 hours, CellTiter-Glo; read-out: Antiproli SNU-389 IC50 median
Procedure: as §2, §3, §4, §5, §6

T47D = test: Antiproliferation assay 7, T47D; format: cell-based; details: T47D cells, 72 hours, CellTiter-Glo; read-out: Antiproli T47D IC50 median
Procedure: as §2, §3, §4, §5, §6

SUDHL5 [7] = test: Induction of cytotoxicity (Assay 6), SUDHL5
SUDHL5 [8] = system: SUDHL5
SUDHL10 [9] = system: SUDHL10
KYSE-180 = test: Antiproliferation assay 7, KYSE-180; format: cell-based; details: Homo sapiens; KYSE-180 cells, 72 hours, CellTiter-Glo; read-out: Antiproli KYSE-180 IC50 median
Procedure: as §2, §3, §4, §5, §6

[10] = Homo sapiens, SU-DHL-5, 3 h, Caspase-Glo 3/7, read-out: Caspase SUDHL5 EC50 (median)
[11] = Homo sapiens, SU-DHL10, 3 h, Caspase-Glo 3/7, read-out: Caspase SUDHL10 EC50 (median)
[12] = Homo sapiens, SU-DHL10, 5 h, read-out: Cytotox SUDHL10 IC50 (median), SUDHL10 cells, 5 hours, CellTiter-Glo
[13] = 3 hours, Caspase-Glo 3/7, read-out: Caspase SUDHL5 EC50 (median)
[14] = 3 hours, Caspase-Glo 3/7, read-out: Caspase SUDHL10 EC50 (median)

Structure (SMILES)	EC50 (SUDHL5 [1]; [10])	EC50 (SUDHL10 [2]; [11])	IC50 (SUDHL5 [3]; Homo sapiens, SU-DHL-5, 72 h)	IC50 (SUDHL10 [4]; Homo sapiens, SU-DHL10, 72 h)	IC50 (MV-4-11; Homo sapiens, MV4-11, 72 h)	IC50 (AMO-1; Homo sapiens, AMO1, 72 h)	IC50 (HMC-1-8; 72 h)	IC50 (SK-BR-3; Homo sapiens)	IC50 (A2058; Homo sapiens)	IC50 (NCI-H23; Homo sapiens)	IC50 (SUDHL10 [5]; [12])	IC50 (SUDHL10 [4]; 72 hours)	EC50 (SUDHL5 [1]; [13])	EC50 (SUDHL10 [2]; [14])	IC50 (SUDHL5 [3]; 72 hours)	IC50 (MV-4-11; 72 hours)	IC50 (AMO-1; 72 hours)	IC50 (HMC-1-8; 72 hours)	IC50 (A2058)	other results
Cc1nn(C)c2c1-c1c(Cl)ccc3c(CCCOc4cccc5ccccc45)c(C(=O)O)n(c13)CCCCOC2 (racemic) [Example 2, rac-4-chloro-1,3-dimethyl-7-[3-(naphthalen-1-yloxy)propyl]-1,10,11,12,13,15-hexahydropyrazolo[4′,3′:9,10][1,6]oxazacycloundecino[8,7,6-hi]indole-8-carboxylic Acid]	950 nM	3800 nM	2800 nM	2400 nM	1610 nM	4860 nM	15300 nM	8270 nM	> 30000 nM	14600 nM	3000 nM	–	–	–	–	–	–	–	–	–
CCOC(=O)c1c(CCCOc2cccc3cc(F)ccc23)c2ccc(Cl)c3c2n1CCCCCN(C)c1nn(C)c(C)c1-3	–	–	–	–	–	–	–	–	–	–	–	–	–	–	–	–	–	–	–	ring closure, yield of all isomers [6]: 44.8%
Cc1nn(C)c2c1-c1c(Cl)ccc3c(CCCOc4cccc5ccccc45)c(C(=O)O)n(c13)CCCCOC2 (single isomer, unassigned; enantiomer 1) [Example 3, 4-chloro-1,3-dimethyl-7-[3-(naphthalen-1-yloxy)propyl]-1,10,11,12,13,15-hexahydropyrazolo[4′,3′:9,10][1,6]oxazacycloundecino[8,7,6-hi]indole-8-carboxylic Acid (Enantiomer 1)]	–	–	–	–	766 nM	2510 nM	8280 nM	7370 nM	> 30000 nM	6120 nM	–	1700 nM	–	–	–	–	–	–	–	IC50 (SNU-389): 20600 nM
Cc1c2c(nn1C)COCCCCn1c(C(=O)O)c(CCCOc3cccc4cc(F)ccc34)c3ccc(Cl)c-2c31 (single isomer, unassigned; enantiomer 1) [Example 15, (+)-4-chloro-7-{3-[(6-fluoronaphthalen-1-yl)oxy]propyl}-2,3-dimethyl-2,10,11,12,13,15-hexahydropyrazolo[4′,3′:9,10][1,6]oxazacycloundecino[8,7,6-hi]indole-8-carboxylic acid-N-ethylethanamine Salt (Enantiomer 1)]	–	–	–	–	–	–	–	–	–	–	–	200 nM	150 nM	150 nM	190 nM	461 nM	530 nM	1360 nM	5860 nM	IC50 (T47D): 11900 nM; IC50 (SUDHL5 [7]; read-out: Cytotox SUDHL5 IC50 (median), SUDHL5 cells, 5 hours, CellTiter-Glo): 140 nM; IC50 (SUDHL10 [5]; read-out: Cytotox SUDHL10 IC50 (median), SUDHL10 cells, 5 hours, CellTiter-Glo): 230 nM
Cc1c2c(nn1C)COCCCCn1c(C(=O)O)c(CCCOc3cccc4ccccc34)c3ccc(Cl)c-2c31 (racemic) [Example 25, (rac)-4-chloro-2,3-dimethyl-7-[3-(naphthalen-1-yloxy)propyl]-2,10,11,12,13,15-hexahydropyrazolo[4′,3′:9,10][1,6]oxazacycloundecino[8,7,6-hi]indole-8-carboxylic Acid]	–	–	–	–	–	–	–	–	–	–	–	–	390 nM	1200 nM	560 nM	2780 nM	1310 nM	6480 nM	21900 nM	IC50 (SK-BR-3): 12900 nM; IC50 (NCI-H23): 6010 nM; IC50 (SUDHL5 [8]): 530 nM; IC50 (SUDHL10 [9]): 930 nM
Cc1c2c(nn1C)CN(C)CCCCn1c(C(=O)O)c(CCCOc3cccc4ccccc34)c3ccc(Cl)c-2c31 (single isomer, unassigned; enantiomer 1) [Example 12, (+)-4-chloro-2,3,14-trimethyl-7-[3-(naphthalen-1-yloxy)propyl]-10,11,12,13,14,15-hexahydro-2H-pyrazolo[3′,4′:8,9][1,6]diazacycloundecino[10,11,1-hi]indole-8-carboxylic acid-N-ethylethanamine Salt (Enantiomer 1)]	64 nM	97 nM	170 nM	140 nM	441 nM	335 nM	1580 nM	667 nM	4830 nM	–	140 nM	–	–	–	–	–	–	–	–	IC50 (KYSE-180): 3790 nM; IC50 (SUDHL5 [7]; Homo sapiens, SU-DHL-5, 5 h, read-out: Cytotox SUDHL5 IC50 (median), SUDHL5 cells, 5 hours, CellTiter-Glo): 83 nM
